Reference: US20110287953A1, “METHOD FOR DISCOVERING POTENTIAL DRUGS” (priority 2010, published 2011)
Like-named read-outs stand apart in the source and are kept apart here.

Legend:
Huh7 cells = experiment: Clonogenic assay; type: cell-based; details: colony number at 10 μM; for inhibition at 10 µM: Homo sapiens, Huh-7, 360 h
Procedure: The HCC cell lines, Mahlavu, PLC5, HepG2, and Huh7, were cultured in Dulbecco's Modified Eagle Medium (DMEM; Seromed, Berlin, Germany) supplemented with 10% heat-inactivated fetal bovine serum, 100 μg/ml streptomycin, 100 μg/ml penicillin, and 2 mM L-glutamine in a humidified atmosphere containing 5% CO2 at 37° C. The viability of the exposed cells was determined using the MTT cell viability assay kit (Sigma-Aldrich, St. Louis, USA), according to the manufacturer's instructions. […] The cells were exposed to different concentrations of the small molecules for 72 hours. Control cells were incubated in the absence of small molecules. Afterwards, the cells were incubated with medium containing MTT for 2 hours. The optical density at 450 nm was measured using a microplate reader (Spectral Max250). For the clonogenic assay, Huh7 cells were seeded out in appropriate dilutions in a 6-well plate and treated with selected small molecules at various concentrations for 15 days. Colonies were fixed with glutaraldehyde (6.0% v/v), stained with crystal violet (0.5% w/v), and counted.

[1] = system: HCC cell lines, Mahlavu, PLC5, HepG2, and Huh7; experiment: MTT cell viability test in HCC cell lines
Procedure: (§1) The HCC cell lines, Mahlavu, PLC5, HepG2, and Huh7, were cultured in Dulbecco's Modified Eagle Medium (DMEM; Seromed, Berlin, Germany) supplemented with 10% heat-inactivated fetal bovine serum, 100 μg/ml streptomycin, 100 μg/ml penicillin, and 2 mM L-glutamine in a humidified atmosphere containing 5% CO2 at 37° C. […] The cells were exposed to different concentrations of the small molecules for 72 hours. Control cells were incubated in the absence of small molecules. Afterwards, the cells were incubated with medium containing MTT for 2 hours. […] For the clonogenic assay, Huh7 cells were seeded out in appropriate dilutions in a 6-well plate and treated with selected small molecules at various concentrations for 15 days. Colonies were fixed with glutaraldehyde (6.0% v/v), stained with crystal violet (0.5% w/v), and counted.

HCC cell lines = experiment: Drug efficacy label of top 10 CMap drugs (MTT or clonogenic); type: cell-based; details: Table 2-3; labels (1) and (4); gene set in which the drug ranked top 10;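 further: label 1 means effective by MTT or clonogenic assay and 4 means ineffective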
Procedure: as §1

[2] = Table 3-1, HCC cell lines, 72 hours, MTT
[3] = 72 h, Table 2-2, HCC cell lines, MTT
[4] = 72 h, Table 3-1, HCC cell lines, MTT

## O=C(O)CNC(=O)C(CS)Cc1ccccc1 (racemic) [DL-thiorphan]
Huh7 cells; Table 3-1, 15 days
  Clonogenic assay: Ineffective
[1]; [2]
  IC50: > 10 µM

## Nc1nc2nn[nH]c2c(=O)[nH]1 [8-azaguanine]
HCC cell lines
  drug efficacy label: 8-azaguanine (4)
Huh7 cells; Table 2-2, 15 days
  Clonogenic assay: Ineffective
Huh7 cells; Table 3-1, 15 days
  Clonogenic assay: Ineffective
[1]; [3]
  IC50: > 10 µM
[1]; [4]
  IC50: > 10 µM

## C[C@]12CC[C@@H]3c4ccc(O)cc4CC[C@H]3[C@@H]1CC[C@H]2O [Alpha-estradiol]
HCC cell lines
  drug efficacy label: Alpha-estradiol (4)
Huh7 cells; Table 2-2, 15 days
  Clonogenic assay: Ineffective
[1]; [3]
  IC50: > 10 µM

## COc1ccccc1N1CCN(CCCCNC(=O)c2ccc3ccccc3c2)CC1.Cl.Cl [DO 897/99]
Huh7 cells; Table 3-1, 15 days
  Clonogenic assay: Effective (Effectiveness in clonogenic assay is defined as reducing more than 50% colony number at 10 μM)
[1]; [2]
  IC50: > 10 µM

## O=C1Nc2ccc3ncsc3c2/C1=C/Nc1ccc(S(=O)(=O)Nc2ccccn2)cc1 [GW-8510]
[1]; [2]
  IC50: 5 to 10 µM

## CC(=O)[C@H]1CC[C@H]2[C@@H]3C[C@H](C)C4=CC(=O)CC[C@]4(C)[C@H]3[C@@H](O)C[C@]12C [Medrysone]
HCC cell lines
  drug efficacy label: medrysone (4)
Huh7 cells; Table 2-2, 15 days
  Clonogenic assay: Ineffective
[1]; [3]
  IC50: > 10 µM

## CCOc1cc(CC(=O)N[C@@H](CC(C)C)c2ccccc2N2CCCCC2)ccc1C(=O)O [Repaglinide]
HCC cell lines
  drug efficacy label: repaglinide (4)
Huh7 cells; Table 2-2, 15 days
  Clonogenic assay: Ineffective
[1]; [3]
  IC50: > 10 µM

## CCCCC(CC)CNC(=N)NC(=N)NCCCCCCNC(=N)NC(=N)NCC(CC)CCCC (stereo not drawn) [alexidine]
[1]; [4]
  IC50: 0.1 to 1 µM

## Nc1ncn([C@@H]2O[C@H](CO)[C@@H](O)[C@H]2O)c(=O)n1 [azacitidine]
Huh7 cells; Table 3-1, 15 days
  inhibition at 10 µM: > 50%
[1]; [4]
  IC50: > 10 µM

## CC(C)COCC(CN(Cc1ccccc1)c1ccccc1)N1CCCC1 (stereo not drawn) [bepridil]
[1]; [4]
  IC50: 5 to 10 µM

## CC[C@@]1(O)C(=O)OCc2c1cc1n(c2=O)Cc2cc3ccccc3nc2-1 [camptothecin]
[1]; [4]
  IC50: 0.1 to 1 µM

## O=c1cc(-c2ccccc2)oc2cc(O)cc(O)c12 [chrysin]
[1]; [4]
  IC50: > 10 µM

## Cc1cc(C2CCCCC2)n(O)c(=O)c1 [ciclopirox]
[1]; [4]
  IC50: 5 to 10 µM

## Oc1c(I)cc(Cl)c2cccnc12 [clioquinol]
[1]; [4]
  IC50: 5 to 10 µM

## N[C@@H]1CON=C1O [cycloserine]
Huh7 cells; Table 3-1, 15 days
  Clonogenic assay: Ineffective
[1]; [4]
  IC50: > 10 µM

## COc1ccc([C@@H]2Sc3ccccc3N(CCN(C)C)C(=O)[C@@H]2OC(C)=O)cc1 [diltiazem]
[1]; [4]
  IC50: > 10 µM

## OCCN(CCO)c1nc(N2CCCCC2)c2nc(N(CCO)CCO)nc(N3CCCCC3)c2n1 [dipyridamole]
Huh7 cells; Table 3-1, 15 days
  inhibition at 10 µM: > 50%
Huh7 cells; Table 2-2, 15 days
  Clonogenic assay: Effective (Effectiveness in clonogenic assay is defined as reducing more than 50% colony number at 10 μM)
[1]; [3]
  IC50: > 10 µM
[1]; [4]
  IC50: > 10 µM

## Cc1c2ccncc2c(C)c2c1[nH]c1ccccc12 [ellipticine]
[1]; [4]
  IC50: 0.1 to 1 µM

## CC[C@H]1CN2CCc3cc(OC)c(OC)cc3[C@@H]2C[C@@H]1C[C@H]1NCCc2cc(OC)c(OC)cc21 [emetine]
[1]; [4]
  IC50: 0.1 to 1 µM

## C[C@]12CC[C@@H]3c4ccc(O)cc4CC[C@H]3[C@@H]1C[C@@H](O)[C@@H]2O [estriol]
[1]; [4]
  IC50: > 10 µM

## CC1CC(OC(=O)C(O)c2ccccc2)CC(C)(C)N1C (stereo not drawn) [eucatropine]
[1]; [4]
  IC50: > 10 µM

## COc1c2ccoc2nc2c(OC)c(OCC(O)C(C)(C)O)ccc12 (stereo not drawn) [evoxine]
Huh7 cells; Table 3-1, 15 days
  Clonogenic assay: Ineffective
[1]; [4]
  IC50: > 10 µM

## CC(C(=O)O)c1cccc(Oc2ccccc2)c1 (stereo not drawn) [fenoprofen]
[1]; [4]
  IC50: > 10 µM

## C[C@@H]1C(=O)O[C@H]2C[C@@]34[C@H]5C[C@@H](C(C)(C)C)[C@]36[C@@H](OC(=O)[C@@H]6O)O[C@@]4(C(=O)O5)[C@]21O [ginkgolide A]
[1]; [2]
  IC50: > 10 µM

## Cc1ccc(S(=O)(=O)NC(=O)NN2CC3CCCC3C2)cc1 (stereo not drawn) [gliclazide]
Huh7 cells; Table 3-1, 15 days
  Clonogenic assay: Ineffective
[1]; [4]
  IC50: > 10 µM

## CC1=CC(=O)C2=C(C)CC[C@@H]3[C@H](OC(=O)[C@H]3C)[C@@H]12 [leucomisine]
Huh7 cells; Table 3-1, 15 days
  Clonogenic assay: Ineffective
[1]; [2]
  IC50: > 10 µM

## C#C[C@]1(O)CC[C@H]2[C@@H]3CCC4=CC(=O)CC[C@@H]4[C@H]3CC[C@@]21CC [levonorgestrel]
[1]; [4]
  IC50: > 10 µM

## OC(c1cc(C(F)(F)F)nc2c(C(F)(F)F)cccc12)C1CCCCN1 (stereo not drawn) [mefloquine]
[1]; [4]
  IC50: 1 to 5 µM

## Cc1cc2c(cc1S(N)(=O)=O)S(=O)(=O)CCC2 [meticrane]
Huh7 cells; Table 3-1, 15 days
  Clonogenic assay: Ineffective
[1]; [4]
  IC50: > 10 µM

## O=C1c2c(O)ccc(O)c2C(=O)c2c(NCCNCCO)ccc(NCCNCCO)c21 [mitoxantrone]
[1]; [4]
  IC50: 0.1 to 1 µM

## Cc1ccsc1/C=C/C1=NCCCN1C [morantel]
[1]; 72 h
  IC50: > 10 µM

## C#CCN(C)Cc1ccccc1 [pargyline]
[1]; [4]
  IC50: > 10 µM

## O=C(O)c1ccccc1C(=O)Nc1ccc(S(=O)(=O)Nc2nccs2)cc1 [phthalylsulfathiazole]
Huh7 cells; Table 3-1, 15 days
  Clonogenic assay: Ineffective
[1]; [4]
  IC50: > 10 µM

## COc1cc(/C=C/C(=O)N2CCC=CC2=O)cc(OC)c1OC [piperlongumine]
[1]
  IC50: 1 to 5 µM

## CCN(CC)CCOC(=O)c1ccc(N)cc1 [procaine]
[1]; [4]
  IC50: > 10 µM

## CCCNCC(O)COc1ccccc1C(=O)CCc1ccccc1 (stereo not drawn) [propafenone]
Huh7 cells; Table 3-1, 15 days
  inhibition at 10 µM: > 50%
[1]; [4]
  IC50: > 10 µM

## Oc1ccc(C=Cc2cc(O)cc(O)c2)cc1 [resveratrol]
HCC cell lines
  drug efficacy label: resveratrol (4)

## Cn1c([N+](=O)[O-])cnc1COC(N)=O [ronidazole]
[1]; [4]
  IC50: > 10 µM

## C=C(C)[C@H]1Cc2c(ccc3c2O[C@@H]2COc4cc(OC)c(OC)cc4[C@@H]2C3=O)O1 [rotenone]
[1]; [4]
  IC50: 0.1 to 1 µM

## CC[C@H]1OC(=O)[C@H](C)[C@@H](O[C@H]2C[C@@](C)(OC)[C@@H](O)[C@H](C)O2)[C@H](C)[C@@H](O[C@@H]2O[C@H](C)C[C@H](N(C)C)[C@H]2O)[C@](C)(O)C[C@@H](C)/C(=N\OCOCCOC)[C@H](C)[C@@H](O)[C@]1(C)O [roxithromycin]
[1]; [4]
  IC50: > 10 µM

## C[n+]1cc2c3c(ccc2c2ccc4cc5c(cc4c21)OCO5)OCO3 [sanguinarine]
[1]; 72 h
  IC50: 0.1 to 1 µM

## COc1ccc2c(OC)c3ccoc3nc2c1OC [skimmianine]
Huh7 cells; Table 3-1, 15 days
  inhibition at 10 µM: > 50%
[1]; [4]
  IC50: > 10 µM

## O=C(CCCN1CCC2(CC1)C(=O)NCN2c1ccccc1)c1ccc(F)cc1 [spiperone]
Huh7 cells; Table 3-1, 15 days
  inhibition at 10 µM: > 50%

## Clc1ccc(CSC(Cn2ccnc2)c2ccc(Cl)cc2Cl)cc1 (stereo not drawn) [sulconazole]
Huh7 cells; Table 3-1, 15 days
  inhibition at 10 µM: > 50%
Huh7 cells; Table 2-2, 15 days
  Clonogenic assay: Effective (Effectiveness in clonogenic assay is defined as reducing more than 50% colony number at 10 μM)

## COc1cnc(NS(=O)(=O)c2ccc(N)cc2)nc1 [sulfametoxydiazine]
[1]; [4]
  IC50: > 10 µM

## C=CCNC1=C2C[C@@H](C)C[C@H](OC)[C@H](O)[C@@H](C)/C=C(\C)[C@H](OC(N)=O)[C@@H](OC)/C=C\C=C(/C)C(=O)NC(=CC1=O)C2=O [tanespimycin]
HCC cell lines
  drug efficacy label: tanespimycin (1)
[1]; 0.1, 1 and 10 μM, 72 hours, MTT
  cell viability / cytotoxicity in HCC cell lines: exhibited cytotoxicity effect
[1]; [3]
  IC50: < 0.1 µM
[1]; [4]
  IC50: < 0.1 µM
[1]; 72 h, HCC cell lines
  IC50: < 10 µM

## CSc1ccc2c(c1)N(CCC1CCCCN1C)c1ccccc1S2 (stereo not drawn) [thioridazine]
HCC cell lines
  drug efficacy label: thioridazine (1)

## C=C(NC(=O)C(=C)NC(=O)c1csc(C2=N[C@@H]3c4csc(n4)[C@H]4NC(=O)c5csc(n5)[C@H]([C@](C)(O)[C@@H](C)O)NC(=O)[C@H]5CSC(=N5)/C(=C/C)NC(=O)[C@H]([C@@H](C)O)NC(=O)c5csc(n5)[C@]3(CC2)NC(=O)[C@H](C)NC(=O)C(=C)NC(=O)[C@H](C)NC(=O)[C@H]([C@@H](C)CC)N[C@@H]2C=Cc3c([C@H](C)O)cc(nc3[C@H]2O)C(=O)O[C@@H]4C)n1)C(N)=O [thiostrepton]
[1]; [4]
  IC50: 1 to 5 µM

## CC(=O)Oc1cc(C(F)(F)F)ccc1C(=O)O [triflusal]
Huh7 cells; Table 2-2, 15 days
  Clonogenic assay: Ineffective
Huh7 cells; Table 3-1, 15 days
  Clonogenic assay: Ineffective
[1]; [3]
  IC50: > 10 µM
[1]; [4]
  IC50: > 10 µM

## Cc1cc2cc3c(C)cc(=O)oc3c(C)c2o1 [trioxysalen]
Huh7 cells; Table 3-1, 15 days
  inhibition at 10 µM: > 50%
[1]; [4]
  IC50: > 10 µM

## CC1=C(CO)C(=O)O[C@@H]([C@@H](C)[C@H]2CC[C@H]3[C@@H]4C[C@H]5O[C@]56[C@@H](O)C=CC(=O)[C@]6(C)[C@H]4CC[C@]23C)C1 [withaferin A]
[1]; [2]
  IC50: 0.1 to 1 µM

## CN(C)C/C=C(/c1ccc(Br)cc1)c1cccnc1 [zimeldine]
Huh7 cells; Table 3-1, 15 days
  Clonogenic assay: Ineffective
[1]; [4]
  IC50: > 10 µM

## tyloxapol
[1]; [2]
  IC50: 5 to 10 µM
